Data: patent US20220096652A1, “ACETAL-BASED CLEAVABLE LINKERS” (Synaffix B.V., priority 2019, published 2022)
“Also recorded” adds a separate entry of the source.

Tests used:
Papain = target: T1, Papain (Carica papaya, UniProt P00784); assay: Papain digestion of linker-drug in histidine acetate buffer, UPLC-MS; type: in vitro ADME; details: pH 6, Papain YES, 37° C., 19 h (10, 18) or 67 h (26)
T1 sequence (P00784 134-345): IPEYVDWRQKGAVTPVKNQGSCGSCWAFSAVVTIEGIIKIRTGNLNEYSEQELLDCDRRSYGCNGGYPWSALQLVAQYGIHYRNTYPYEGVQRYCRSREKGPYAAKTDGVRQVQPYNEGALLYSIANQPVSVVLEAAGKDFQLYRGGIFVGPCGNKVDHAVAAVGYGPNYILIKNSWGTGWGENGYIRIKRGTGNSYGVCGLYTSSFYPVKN
Procedure: To an Eppendorf vial containing histidine acetate buffer (50 μL, 20 mM, pH 6) were added a solution of 10 in DMF (3 μL, 10 mM) and a Papain solution in histidine acetate buffer (0.5 mg/mL, 20 mM buffer, pH 6).
To an Eppendorf vial containing histidine acetate buffer (50 μL, 20 mM, pH 6) were added a solution of 18 in DMF (3 μL, 10 mM) and a Papain solution in histidine acetate buffer (0.5 mg/mL, 20 mM buffer, pH 6).
To an Eppendorf vial containing histidine acetate buffer (50 μL, 20 mM, pH 6) were added a solution of 26 in DMF (3 μL, 10 mM) and a Papain solution in histidine acetate buffer (0.5 mg/mL, 20 mM buffer, pH 6).

[1] = Negative control: incubation in histidine acetate buffer pH 6 without Papain, UPLC-MS; type: physicochemical; details: pH 6, Papain NO, 37° C., 18 h (10, 18) or 67 h (26); for Ratio DXd / s.m.: based on peak area (UV 254 nm)
Procedure: To an Eppendorf vial containing histidine acetate buffer (110 μL, 20 mM, pH 6) was added a solution of 10 in DMF (3 μL, 10 mM).
To an Eppendorf vial containing histidine acetate buffer (110 μL, 20 mM, pH 6) was added a solution of 18 in DMF (3 μL, 10 mM).
To an Eppendorf vial containing histidine acetate buffer (110 μL, 20 mM, pH 6) was added a solution of 26 in DMF (3 μL, 10 mM). […] The intermediate 26-Int was not observed.

[2] = Incubation in 1:1 PBS (pH 7.4) / DMF, UPLC-MS; type: physicochemical; details: pH 7.4, Papain NO, 1:1 PBS/DMF, overnight; based on peak area (UV 254 nm)
Procedure: To a 1:1 mixture of PBS (pH 7.4) and DMF (199 μL) was added a 10 mM solution of 10 in DMF (1 μL). The mixture was incubated overnight and analyzed by UPLC-MS. Intermediate 10-Int and DXd were not observed.
To a 1:1 mixture of PBS (pH 7.4) and DMF (199 μL) was added a 10 mM solution of 18 in DMF (1 μL). The mixture was incubated overnight and analysed by UPLC-MS. Intermediate 18-Int and DXd were not observed.
To a 1:1 mixture of PBS (pH 7.4) and DMF (199 μL) was added a 10 mM solution of 26 in DMF (1 μL). The mixture was incubated overnight and analysed by UPLC-MS. Intermediate 26-Int and DXd were not observed.

Which results are given for `CC[C@@]1(O)C(=O)OCc2c1cc1n(c2=O)Cc2c-1nc1cc(F)c(C)c3c1c2[C@@H](NC(=O)COCOCc1ccc(NC(=O)[C@H](C)NC(=O)[C@@H](NC(=O)OCCOCCNC(=O)OC[C@@H]2[C@@H]4CCC#CCC[C@@H]42)C(C)C)cc1)CC3` [Compound 10]?
Formation of DXd (Papain): only a very small amount of material was transformed into DXd; also recorded: + / −; Ratio DXd / s.m. [1]: 0; Ratio DXd / s.m. [2]: 0

For `CC[C@@]1(O)C(=O)OCc2c1cc1n(c2=O)Cc2c-1nc1cc(F)c(C)c3c1c2[C@@H](NC(=O)COC(C)OCc1ccc(NC(=O)[C@H](C)NC(=O)[C@@H](NC(=O)OCCOCCNC(=O)OC[C@@H]2[C@@H]4CCC#CCC[C@@H]42)C(C)C)cc1)CC3` (stereo partly shown) [Compound 18], which “Ratio DXd / s.m.” value [1] is on record?
The value was 0.

And the “Ratio DXd / s.m.” value [2]?
Its value is 0.

With `CC[C@@]1(O)C(=O)OCc2c1cc1n(c2=O)Cc2c-1nc1cc(F)c(C)c3c1c2[C@@H](NC(=O)COC1(OCc2ccc(NC(=O)[C@H](C)NC(=O)[C@@H](NC(=O)OCCOCCNC(=O)OC[C@@H]4[C@@H]5CCC#CCC[C@@H]54)C(C)C)cc2)CCCCC1)CC3` [Compound 26] as the compound, how does the “Formation of DXd” value [1] read?
The value was “partial conversion of 26 into DXd; also recorded: + / −”.

And the “Ratio DXd / s.m.” value [2]?
The value was 0.
